Source: paper PMC11847541, “Liver fatty acid binding protein FABP1 transfers substrates to cytochrome P450 4A11 for catalysis” (The Journal of Biological Chemistry, 2025)
Where two headings read alike, the source gives them in different places.

Columns and labels:
P450 4A11 [1] = target: T1, P450 4A11 (Homo sapiens, UniProt Q02928); assay: Ketoconazole trap experiment for lipid koff from P450 4A11; assay type: binding; design: made in house; host or cells: E. coli
T1 sequence (Q02928 5-519): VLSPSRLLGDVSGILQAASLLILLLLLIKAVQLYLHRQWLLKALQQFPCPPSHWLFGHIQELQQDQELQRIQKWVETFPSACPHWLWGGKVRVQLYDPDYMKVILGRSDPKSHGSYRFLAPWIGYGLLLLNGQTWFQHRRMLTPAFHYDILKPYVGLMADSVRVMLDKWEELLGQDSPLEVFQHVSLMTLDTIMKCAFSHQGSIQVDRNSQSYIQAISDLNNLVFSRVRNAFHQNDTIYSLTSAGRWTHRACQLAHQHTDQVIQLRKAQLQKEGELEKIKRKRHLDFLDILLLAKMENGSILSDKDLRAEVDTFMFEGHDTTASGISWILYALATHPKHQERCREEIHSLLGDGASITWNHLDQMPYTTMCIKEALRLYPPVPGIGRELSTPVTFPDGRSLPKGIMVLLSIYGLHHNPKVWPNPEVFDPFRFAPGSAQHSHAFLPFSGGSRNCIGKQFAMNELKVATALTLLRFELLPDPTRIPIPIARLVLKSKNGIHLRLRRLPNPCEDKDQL
Procedure: To assess the rates of lipid egress from P450 4A11 (k-1, k-3), lipids were tested in conjunction with the general P450 inhibitor ketoconazole in a “trap experiment” as we have recently described to estimate koff rates for P450–sterol complexes ([27], [28]). P450–lipid complexes were rapidly mixed with ketoconazole, and the spectral shift from 390 nm (substrate bound, type I) to 418 nm (inhibitor bound, type II) P450 was monitored over time (Fig. 9A, progression from blue to red curve). This spectral shift arises from the direct interaction of the azole nitrogen lone pair with the heme iron (forming a hexacoordinated heme species). This experiment is performed with an excess of ketoconazole (100 μM) to facilitate rapid capture of unliganded P450 yielded at the moment of lipid dissociation, such that ketoconazole kon approximates the lipid koff.
(The concentration of lipid added during preincubation reflects the affinity of the complex determined in equilibrium binding titrations; Fig. 8). The first phase of each trace relates to the ketoconazole capture of the unliganded enzyme (the majority–but not all–P450 was substrate bound at equilibrium), and the second phase correlates to the capture of enzyme yielded by the egress of the bound lipid (i.e., estimate of koff). […] The rates extracted for the second phase (koff) were 0.070 ± 0.006 s^−1 (k-3) and 0.20 ± 0.01 s^−1 (k-1), respectively.
Determination of P450 4A11 koff rates with lipids was performed using a ketoconazole “trap” experiment by adapting previously published protocols ([27], [28]). Solutions of (A) ketoconazole (200 μM) and (B) P450 4A11 (4 μM) and either palmitate (20 μM) or 16-OH palmitate (8 μM) were prepared (2 ml each, all in 100 mM potassium phosphate buffer [pH 7.4]) and loaded into the drive syringes of an OLIS stopped-flow spectrophotometer with the same procedure described for the P450 4A11 kon determination (aforementioned). The experiment was initiated by mixing equal volumes of each solution together, and the rate of ketoconazole binding to P450 is given by ΔA418-A390 (displacement of lipid [decrease in A390] because of ketoconazole binding [increase in A418]) and is a maximum value for the rate at which the P450–lipid complex dissociated (koff) (Fig. S14).
Figure S14. Absorbance traces used to determine P450 4A11 palmitate koff rate. The basis of the ketoconazole trap experiment is the spectral transition from substrate-bound (“Type I” shift, A390 (blue trace)) to inhibitor-bound (“Type II” shift, A418 (red trace)) P450 (Fig. 9A). The formation of ketoconazole-bound P450 (inhibitor complex) from palmitate-bound P450 (substrate complex) is over the course of the experiment shown above. The rate of formation of inhibitor-bound P450 is subtracted from the rate of decay of substrate-bound P450, and the resulting plot (Fig. 9D) is fit to a biexponential equation to estimate the dissociation rate (koff) of palmitate from the P450 4A11.

P450 4A11 [2] = tested on: P450 4A11; design: species or system human
Text: To predict the potential effects of FABP1 on P450 4A11 catalysis, we programmed two computational models in KinTek Explorer to reflect those presented in Figure 2 (i.e., free ligand model versus direct transfer model). The models were equipped with the rate constants and/or Kd values estimated for either palmitate or DAUDA (where applicable) and for protein–protein binding, which are summarized in Table 2. As is indicated in Table 2, certain rate constants necessary for the modeling are estimated based on a known Kd value and an individual known rate constant. To predict the kinetic result of the free ligand model, the rate(s) of transfer (k6, k-6) were set to a value of zero, reflecting the predicted inability of the two proteins to interact. The interaction of P450 and FABP1 occurs in the absence of substrate, although whether the P450–FABP1 (EF) complex can accept a substrate (to form EFS) is unknown. The modeling software estimated a 1 µM Kd value for the interaction with the assumption that the complex could not accept a cytosolic substrate. To predict the kinetic result of the direct transfer model, our experimentally estimated rates of transfer were allowed to be fit by the model. Aside from the manipulations with the transfer rate, all remaining rate constants were input as they appear in Table 2.
When provided the experimental conditions for the kinetic assays in Figure 12, the free ligand model predicted that the rate of P450 catalysis decreases rapidly as the concentration of FABP1 approaches the concentration of substrate in the experiment (Fig. 12A, blue line), which is intuitive (given the difference in palmitate binding affinities; Table 1, Table 2 and 2). Provided the same conditions, the direct transfer model predicted a slight attenuation of P450 activity (as the concentration of FABP1 approaches the total concentration of substrate (S)), which yielded an excellent fit to our experimental data when a rate of P450 catalysis of 0.11 s^−1 was used (Fig. 12A, red line). […] In a separate experiment, the free ligand model similarly predicted that P450 activity would not be observed when the concentration of substrate was below the concentration of FABP1 (Fig. 12B, blue line). The direct transfer model predicted a hyperbolic product distribution (for [S] < [FABP1]) and gave a satisfactory fit to the experimental data when the same rates of ES^′→ES described earlier were used, but the rate of P450 catalysis was reduced 20-fold (to 0.005 s^−1) (Fig. 12B, red line).
Data were imported into KinTek Explorer software (version 11.01; KinTek, https://kintekcorp.com/software) ([76]) as Excel txt files and processed using an Apple computer (operating system 11.6.2, Apple). The kinetic modeling of a binding titration of FABP1 with palmitate (Fig. S13) as well as the txt files used for all kinetic modeling are provided in the Supporting Information.

[3] = P450 4A11 2 μM preincubated with lipid, ketoconazole 100 μM

reduction of rate of P450 catalysis, Fig. 12B vs Fig. 12A model (P450 4A11 [2]) [fold]	koff (P450 4A11 [1]; P450 4A11 2 μM preincubated with lipid, ketoconazole 100 μM, read-out: second phase rate = koff from P450 4A11) [s⁻¹]	Kd (P450 4A11 [1]; quotient of experimentally determined rates, read-out: Kd estimate for P450 4A11 as koff/kon) [µM]	Compound	first phase rate (k1), ketoconazole capture of unliganded enzyme (P450 4A11 [1]; [3]) [s⁻¹]	second phase rate = koff from P450 4A11 (P450 4A11 [1]; [3])	kon to P450 4A11 (k3) (P450 4A11 [1]; calculated from koff and Kd)	forward rate of ES′→ES conformational transition (P450 4A11 [2]; direct transfer model) [s⁻¹]	reverse rate of ES′→ES conformational transition (P450 4A11 [2]; direct transfer model) [s⁻¹]	rate of P450 catalysis used in direct transfer model (P450 4A11 [2]; fit to Fig. 12A (FABP1 varied, palmitate 5 μM)) [s⁻¹]	rate of P450 catalysis used in direct transfer model (P450 4A11 [2]; fit to Fig. 12B (palmitate varied, FABP1 5 μM)) [s⁻¹]	Kd (P450 4A11 [2]) [µM]
			O=C(O)CCCCCCCCCCCCCCCO [16-OH Palmitate (C16), 16-hydroxypalmitate]	1.3 ± 0.4	0.070 ± 0.006 (k-3) s^−1	2.6 × 10^5 (k3) M^−1 s^−1					
20	0.2 ± 0.01	4.8	CCCCCCCCCCCCCCCC(=O)O [Palmitate (C16), palmitate]	2.9 ± 0.1			0.086	0.013	0.11	0.005	
			FABP1: delipidated recombinant liver fatty acid binding protein with C-terminal hexahistidine tag								1
